According to US20220356147A1, “COMPOUNDS AND METHODS FOR POTENTIATING COLISTIN ACTIVITY” (University of Notre Dame du Lac, priority 2019, published 2022):
Several values for one entry are separate records, joined by “and”; a condition that tells them apart may be missing. Equal entries are not always repeated. Where two headings read alike, the source gives them in different places.

Experiments:
AB4106 and KPB9 = assay: Initial screen for colistin resistance suppression, statements in words for both strains; type: cell-based, A. baumannii and K. pneumoniae; details: compound at 5 μM
Description: (§1) Broth microdilution method for measurement of colistin potentiation: Bacteria were cultured for 4 to 6 hours in CAMHB and diluted to 1.04×10^6 CFU/mL for AB 4106 and 1.96×10^6 CFU/mL for KP B9 in fresh CAMHB. To aliquots (4 mL) was added compound from stock solutions in DMSO. One aliquot was not dosed to allow measurement of the colistin MIC in the absence of compound. A 1 mL aliquot of each sample was dosed with colistin, and from this 200 μL was dispensed into the first row of a 96-well microtiter plate in which all but the final row of subsequent wells was prefilled with 100 μL of the corresponding compound dosed bacterial suspension The final row was filled with media to act as a sterility control and blank. Row one wells were mixed 6-7 times, then, 100 μL was withdrawn and transferred to row two. Row two wells were mixed 6-7 times followed by a 100 μL transfer from row two to row three. This procedure was used to serially dilute the rest of the rows of the microtiter plate, excluding the last prefilled row, which was used to measure growth in the presence of compound alone. Plates were then sealed with GLAD
(§2) Press'n Seal and incubated under stationary conditions at 37° C. […] MIC values were determined as the minimum concentration required to achieve 90% growth inhibition compared to growth in untreated wells.

K. pneumoniae B9 (KPB9) = assay: Broth microdilution, colistin potentiation; type: cell-based; design: Colistin MIC against KPB9: unit not given here; details: for ability to break colistin resistance, KPB9: compound at 500 nM
Description: as §1, §2

[1] = test system: A. baumannii 4106 (AB4106); assay: Broth microdilution, colistin potentiation; type: cell-based
Description: as §1, §2

AB 4106 = assay: Broth microdilution, standalone MIC of compound; type: cell-based, A. baumannii; details: standalone, no colistin, read-out: MIC of compound alone, AB 4106
Description: Broth microdilution method for the determination of minimum inhibitory concentrations: Bacteria were cultured for 4 to 6 hours in CAMHB and subcultured to 1.04×10^6 CFU/mL for AB 4106 and 1.96×10^6 CFU/mL for KP B9 in fresh CAMHB. To aliquots (1 mL) was added compound from stock solutions in DMSO, such that the compound concentration equaled the highest concentration tested. Samples were then dispensed (200 μL) into the first row of a 96-well microtiter plate in which all but the final row of subsequent wells were prefilled with 100 μL of the untreated bacterial subculture. The final row was filled with media to act as a sterility control and blank. Row one wells were mixed 6-7 times, then, 100 μL was withdrawn and transferred to row two. Row two wells were mixed 6-7 times followed by a 100 μL transfer from row two to row three. This procedure was used to serially dilute the rest of the rows of the microtiter plate, excluding the last prefilled row, which was used to measure growth in the absence of compound. Plates were then sealed with GLAD Press'n Seal and incubated under stationary conditions at 37 C. […] MIC values were determined as the minimum concentration required to achieve 90% growth inhibition compared to growth in untreated wells.

4T1 cells = assay: Cell line toxicity (MTT); type: cell-based; details: mouse, 18 h
Description: Cell line Toxicity: 4T1 cells (ATCC Manassas, Va.) were plated at a density of 1×10^4 cells/well in 96-well plates in Roswell Park Memorial Institute Media 1640 (RPMI)
(Gibco, Gaithersburg, MD) supplemented with 10% Fetal Bovine Serum (Gibco), 2 mM GlutaMAX (Gibco) and 50 μM 2-mercaptoethanol (Sigma Aldrich, St. Louis, Mo.) and incubated at 37 C under a 5% CO2 atmosphere in the dark for 18 h. Cell cultures were treated with serial dilutions of compounds in the presence or absence of 1 μg/mL colistin (3 replicates per condition) and incubated for an additional 18 hours. The following control conditions were used: media only (blank), 1% Triton X100 (0% cell viability), 0.5% DMSO (100% cell viability). Each condition was then treated with 10% volume of a 5 mg/mL solution of 3-(4,5-dimethylthiazol-2-yl)-2,5-diphenyltetrazolium bromide (MTT) (Sigma Aldrich) in sterile filtered 1X phosphate buffered saline (PBS) and incubated for 2 h. at 37 C in 5% CO2, after which the media was aspirated and the resulting formazan crystals were resuspended in 100 μL acidified (4 mM HCl) isopropanol. The 96-well plate was then read at 540 nm on a FLUOstar Optima (BMG Labtech Cary, NC) microplate reader. Cell viability was calculated as a percentage using the two previously mentioned controls.

AB 3941 = assay: Colistin potentiation, colistin-resistant isolate panel; type: cell-based, A. baumannii; details: compound at 5 μM
AB 17978 mcr-1 = assay: as above; type: cell-based, A. baumannii; details: compound at 5 μM
AB 4112 = assay: as above; type: cell-based, A. baumannii; details: compound at 5 μM
AB 4119 = assay: as above; type: cell-based, A. baumannii; details: compound at 5 μM
AB 3942 = assay: as above; type: cell-based, A. baumannii; details: compound at 5 μM
[2] = compound at 5 μM, colistin alone 2048 μg/mL
[3] = in presence of compound at 1 μM
[4] = in presence of compound at 3 μM
[5] = in presence of compound at 5 μM

## O=C(Nc1cc(C(F)(F)F)cc(C(F)(F)F)c1)c1cc(I)ccc1O [Compound 10]
AB4106 and KPB9
  Colistin potentiation activity in words, compared to IMD-0354: essentially equipotent activity to IMD-0354
K. pneumoniae B9 (KPB9); compound at 5 μM
  Colistin potentiation activity in words, KPB9: equipotent activity
[1]; compound at 1 μM
  Colistin MIC fold reduction, AB 4106: 128 fold
[1]; compound at 3 μM
  Colistin MIC fold reduction, AB 4106: 1024 fold
[1]; compound at 5 μM
  Colistin potentiation activity in words, AB4106: superior activity to IMD-0354
[1]; [2]
  Colistin MIC fold reduction, AB 4106: 4096 fold
AB 4106; Acinetobacter baumannii, 16 h
  MIC: > 200 µM

## O=C(Nc1cc(F)cc(F)c1)c1cc(Cl)ccc1O [Compound 21]
4T1 cells
  CT50 (cytotoxicity): 210 µM
  toxicity compared to IMD-0354: comparable toxicity to IMD-0354
[1]; compound at 1 μM
  Colistin MIC fold reduction, AB 4106: 64 fold
[1]; compound at 3 μM
  Colistin MIC fold reduction, AB 4106: 512 fold
[1]; [2]
  Colistin MIC fold reduction, AB 4106: 1024 fold
AB 4106; Acinetobacter baumannii, 16 h
  MIC: > 200 µM

## O=C(Nc1cc(C(F)(F)F)cc(C(F)(F)F)c1Br)c1cc(Cl)ccc1O [Compound 24]
AB 3941
  Colistin MIC against AB 3941: 1 µg/mL
AB 17978 mcr-1
  Colistin MIC against AB 17978 mcr-1: 0.25 µg/mL
[1]; compound at 1 μM
  Colistin MIC fold reduction, AB 4106: 512 fold
[1]; compound at 3 μM
  Colistin MIC fold reduction, AB 4106: 2048 fold
[1]; [2]
  Colistin MIC fold reduction, AB 4106: 4096 fold
[1]; [3]
  Colistin MIC against AB 4106: 4 µg/mL
[1]; [4]
  Colistin MIC against AB 4106: 1 µg/mL
[1]; [5]
  Colistin MIC against AB 4106: 1 µg/mL and 0.5 µg/mL
AB 4112
  Colistin MIC against AB 4112: 0.25 µg/mL
AB 4119
  Colistin MIC against AB 4119: 0.125 µg/mL
AB 4106
  MIC: >200 µM
AB 3942
  Colistin MIC against AB 3942: 0.5 µg/mL

## O=C(Nc1ccc(C(F)(F)F)cc1)c1cc(Cl)ccc1O [Compound 26]
AB4106 and KPB9
  Colistin potentiation activity in words, compared to IMD-0354: activity equivalent to IMD-0354
4T1 cells
  no measurable toxicity up to: > 200 µM
[1]; compound at 1 μM
  Colistin MIC fold reduction, AB 4106: 128 fold
[1]; compound at 3 μM
  Colistin MIC fold reduction, AB 4106: 1024 fold
[1]; [2]
  Colistin MIC fold reduction, AB 4106: 2048 fold
AB 4106; Acinetobacter baumannii, 16 h
  MIC: > 200 µM

## O=C(Nc1ccc(F)cc1C(F)(F)F)c1cc(Cl)ccc1O [Compound 27]
K. pneumoniae B9 (KPB9); compound at 5 μM
  Colistin MIC against KPB9: 1
[1]; [2]
  Colistin MIC fold reduction, AB 4106: 256 fold
AB 4106; Acinetobacter baumannii, 16 h
  MIC: > 200 µM

## O=C(Nc1cc(C(F)(F)F)ccc1F)c1cc(Cl)ccc1O [Compound 28]
AB 3941
  Colistin MIC against AB 3941: 2 µg/mL
AB4106 and KPB9
  Colistin potentiation activity in words, compared to IMD-0354: activity equivalent to IMD-0354
AB 17978 mcr-1
  Colistin MIC against AB 17978 mcr-1: 0.25 µg/mL
[1]; compound at 1 μM
  Colistin MIC fold reduction, AB 4106: 256 fold
[1]; compound at 3 μM
  Colistin MIC fold reduction, AB 4106: 1024 fold
[1]; [2]
  Colistin MIC fold reduction, AB 4106: 1024 fold
[1]; [3]
  Colistin MIC against AB 4106: 8 µg/mL
[1]; [4]
  Colistin MIC against AB 4106: 2 µg/mL
[1]; [5]
  Colistin MIC against AB 4106: 2 µg/mL
AB 4112
  Colistin MIC against AB 4112: 2 µg/mL
AB 4119
  Colistin MIC against AB 4119: 1 µg/mL
AB 4106
  MIC: >200 µM
AB 3942
  Colistin MIC against AB 3942: 2 µg/mL

## O=C(Nc1ccc(C(F)(F)F)c(F)c1)c1cc(Cl)ccc1O [Compound 29, 5-chloro-N-(3-fluoro-4-(trifluoromethyl)phenyl)-2-hydroxybenzamide]
AB 3941
  Colistin MIC fold reduction, AB 3941: (1024) fold
AB4106 and KPB9
  Colistin potentiation activity in words, compared to IMD-0354: activity equivalent to IMD-0354
K. pneumoniae B9 (KPB9); compound at 250 nM, breakpoint 2 μg/mL
  colistin MIC relative to breakpoint levels, KPB9: reduced the colistin MIC below breakpoint levels
K. pneumoniae B9 (KPB9)
  ability to break colistin resistance, KPB9: retained the ability to break colistin resistance
AB 17978 mcr-1
  Colistin MIC fold reduction, AB 17978 mcr-1: (512) fold
[1]; compound at 1 μM
  Colistin MIC fold reduction, AB 4106: 512 fold
[1]; compound at 3 μM
  Colistin MIC fold reduction, AB 4106: 1024 fold
[1]; [2]
  Colistin MIC fold reduction, AB 4106: 2048 fold
AB 4112
  Colistin MIC fold reduction, AB 4112: (2048) fold
AB 4119
  Colistin MIC fold reduction, AB 4119: (512) fold
AB 4106; Acinetobacter baumannii, 16 h
  MIC: > 200 µM
AB 3942
  Colistin MIC fold reduction, AB 3942: (≥4096) fold

## Cc1ccc(NC(=O)c2cc(Cl)ccc2O)cc1C [Compound 31]
K. pneumoniae B9 (KPB9); compound at 5 μM
  Colistin MIC against KPB9: 16
[1]; [2]
  Colistin MIC fold reduction, AB 4106: 32 fold
[1]; compound at 5 μM, text of b125
  Colistin MIC against AB 4106: 64
AB 4106; Acinetobacter baumannii, 16 h
  MIC: > 200 µM

## Cc1ccc(NC(=O)c2cc(Cl)ccc2O)cc1Br [Compound 32]
K. pneumoniae B9 (KPB9); compound at 5 μM
  Colistin MIC against KPB9: 8
[1]; [2]
  Colistin MIC fold reduction, AB 4106: 32 fold
AB 4106; Acinetobacter baumannii, 16 h
  MIC: > 200 µM

## O=C(Nc1cc(Cl)cc(Cl)c1)c1cc(I)ccc1O [Compound 51]
AB 3941
  Colistin MIC fold reduction, AB 3941: (1024) fold
K. pneumoniae B9 (KPB9)
  ability to break colistin resistance, KPB9: retained the ability to break colistin resistance
AB 17978 mcr-1
  Colistin MIC fold reduction, AB 17978 mcr-1: (512) fold
[1]; compound at 1 μM
  Colistin MIC fold reduction, AB 4106: 512 fold
[1]; compound at 3 μM
  Colistin MIC fold reduction, AB 4106: 2048 fold
[1]; [2]
  Colistin MIC fold reduction, AB 4106: 2048 fold
AB 4112
  Colistin MIC fold reduction, AB 4112: (2048) fold
AB 4119
  Colistin MIC fold reduction, AB 4119: (2048) fold
AB 4106; Acinetobacter baumannii, 16 h
  MIC: > 200 µM
AB 3942
  Colistin MIC fold reduction, AB 3942: (≥4096) fold

## O=C(Nc1cc(Br)cc(Br)c1)c1cc(I)ccc1O [Compound 52, N-(3,5-dibromophenyl)-2-hydroxy-5-iodobenzamide]
AB 3941
  Colistin MIC fold reduction, AB 3941: (1024) fold
K. pneumoniae B9 (KPB9)
  ability to break colistin resistance, KPB9: retained the ability to break colistin resistance
AB 17978 mcr-1
  Colistin MIC fold reduction, AB 17978 mcr-1: (256) fold
[1]; compound at 1 μM
  Colistin MIC fold reduction, AB 4106: 256 fold
[1]; compound at 3 μM
  Colistin MIC fold reduction, AB 4106: 1024 fold
[1]; [2]
  Colistin MIC fold reduction, AB 4106: 2048 fold
AB 4112
  Colistin MIC fold reduction, AB 4112: (2048) fold
AB 4119
  Colistin MIC fold reduction, AB 4119: (512) fold
AB 4106; Acinetobacter baumannii, 16 h
  MIC: > 200 µM
AB 3942
  Colistin MIC fold reduction, AB 3942: (≥4096) fold
